Source: patent US20250295656A1, “COMBINATION OF LURBINECTEDIN AND IMMUNE CHECKPOINT INHIBITORS” (priority 2020, published 2025)

Assays:
Assay type in all cases: cell-based, human
[1] = test system: U2OS cells stably expressing CALR-GFP; assay: CALR-GFP granularity (surrogate marker of CALR exposure); conditions: lurbinectedin 1 nM to 1 μM, MTX 1 and 3 μM, 4-32 hours, vs untreated controls
Method: (§1) (a) Human osteosarcoma U2OS (a), human breast cancer HCC70 (b) human colon cancer HT29 cells (c) and murine methylcholantrene-induced fibrosarcoma MCA205 cells (d) were treated with lurbinectedin (Lurbi, 1 nM, 10 nM, 100 nM and 1 μM) for the indicated times. Subsequently, the cells were stained with 1 μM Hoechst 33342 and 1 μM propidium iodide and assessed for the loss of viability by automated image acquisition. Images were segmented, cellular debris was excluded and the number of cells with normal nuclear morphology was enumerated. Cells stably expressing CALR-GFP were treated as above. Following the cells were fixed with 3.7% of PFA, stained with 1 μM Hoechst 33342 and assessed by automated image acquisition. Images were segmented, cellular debris was excluded and CALR-GFP granularity (a surrogate marker of CALR exposure) was evaluated in the cytoplasmic region of cells with normal nuclear morphology. Wild type cells were treated as above and then assessed for cytoplasmic quinacrine granularity (after staining with the ATP-sensitive dye quinacrine together with Hoechst 33342) by automated image acquisition, segmentation and analysis. Cells stably expressing HMGB1-GFP were treated as above and then assessed for nuclear HMGB1-GFP fluorescence intensity. The cells were fixed and stained with Hoechst 33342 and images were acquired, segmented and analyzed. […]

[2] = test system: U2OS biosensor cells expressing GFP under the MX1 promoter; assay: Type I IFN response (MX1-GFP biosensor cells treated with supernatant); conditions: supernatant of treated U2OS cells after 48 hours fresh media; biosensor cells 48 hours; throughout all time points
Method: In a systematic screening campaign, the capacity of lurbinectedin to induce immunogenic cell death in cancer cells was assessed in human osteosarcoma U2OS cells stably expressing fluorescent biosensors for the detection of CALR-relocation (as a surrogate marker for CALR surface exposure), HMGB1 release and Type I IFN responses together with U2OS WT cells stained with the ATP-sensitive dye quinacrine. […] The induction of cell death was evaluated based on changes in the nuclear morphology visualized by means of the DNA intercalating dye Hoechst 33342.

U2OS WT cells = assay: Cytoplasmic quinacrine granularity (intracellular ATP, indicator of ATP release); conditions: lurbinectedin 1 nM to 1 μM, MTX 1 and 3 μM, dose-dependent, decreased over time, vs untreated controls
Method: as §1

[3] = test system: U2OS cells stably expressing HMGB1-GFP; assay: HMGB1 release (loss of nuclear HMGB1-GFP fluorescence); conditions: lurbinectedin 1 nM to 1 μM, MTX 1 and 3 μM, medium to late time points
Method: as §1

In the case of `O=C1c2c(O)ccc(O)c2C(=O)c2c(NCCNCCO)ccc(NCCNCCO)c21` [MTX, mitoxantrone], the CALR-granularity [1] is reported as “time- and dose-dependent increase”, the “de novo GFP signal intensity (type 1 IFN response)” value [2] is reported as “significant increase” and the “ATP signal (cytoplasmic quinacrine granularity)” value (U2OS WT cells) is reported as “significant decrease”. For the same compound, the “nuclear GFP signal (HMGB1-GFP)” value [3] was “significant decrease”.
